Reference: patent US8501732B2, “Aminomethyl quinolone compounds” (Hoffmann-La Roche Inc., priority 2011, dated 2013)

What was measured:
JNK1 = JNK1 (Homo sapiens (Human), UniProt P45983); assay: In Vitro JNK1 Assay (TR-FRET, phosphorylation of GST-c-Jun); type: biochemical; settings: 0.2 nM active JNK1 kinase, 26.7 nM GST-c-Jun, 2 μM ATP, 30 min at room temperature
Outline: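 IC50 derived from percent inhibition across 10 serially diluted concentrations, with TR-FRET detection of phospho-c-Jun via an anti-phospho-c-Jun antibody after EDTA stop. Substrate was GST-c-Jun 1-79, reacted 30 min at room temperature in pH 7.0 HEPES buffer with MgCl2, DTT, vanadate and BSA.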

[1] = test system: phospho(Ser63)-c-jun in HK-2 cells; assay: Cell-Based Assay for JNK Inhibitors (in-cell ELISA, phospho(Ser63)-c-jun after TNFα); settings: HK-2 cells (human proximal tubule cells), 60 minutes compound, then 10 ng/mL TNFα for 30 minutes
Outline: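 HK-2 human proximal tubule cells were seeded at 40,000 cells/well, cultured 24 h, then serum-starved 16–24 h before TNFα stimulation with compound. Phospho(Ser63)-c-jun was quantified by in-cell ELISA on fixed, permeabilised cells, using a rabbit phospho-specific primary (overnight, 4 °C) and an HRP-linked anti-rabbit secondary. Absorbance was read at 450 nm.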

JNK1, sequence (P45983 whole entry): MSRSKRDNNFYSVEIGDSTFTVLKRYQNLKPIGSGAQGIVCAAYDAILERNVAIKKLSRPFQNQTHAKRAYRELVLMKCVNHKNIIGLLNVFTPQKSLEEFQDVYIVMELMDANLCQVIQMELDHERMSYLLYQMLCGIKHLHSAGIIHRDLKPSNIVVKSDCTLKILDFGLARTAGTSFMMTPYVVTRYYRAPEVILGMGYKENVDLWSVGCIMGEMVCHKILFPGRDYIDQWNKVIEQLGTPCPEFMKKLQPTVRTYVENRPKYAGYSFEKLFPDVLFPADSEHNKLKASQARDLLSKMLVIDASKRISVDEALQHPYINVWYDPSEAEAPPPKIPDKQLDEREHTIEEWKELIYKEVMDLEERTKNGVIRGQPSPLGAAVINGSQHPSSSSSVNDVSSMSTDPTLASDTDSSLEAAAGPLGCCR

IC50 (JNK1) [nM]	EC50 [1] [µM]	Compound
20	6.3	O=C(NCc1cn(-c2ccccc2)c2cc(Cl)ccc2c1=O)c1ccc(N2CCC(CO)CC2)nc1 [Example I-67, 4-Hydroxymethyl-3,4,5,6-tetrahydro-2H-[1,2′]bipyridinyl-5′-carboxylic acid (7-chloro-4-oxo-1-phenyl-1,4-dihydro-quinolin-3-ylmethyl)-amide]
21	17	O=C(NCc1cn(-c2ccccc2)c2cc(Cl)ccc2c1=O)c1ccc(N2CCCCCC2)nc1 [Example I-68, 6-Azepan-1-yl-N-(7-chloro-4-oxo-1-phenyl-1,4-dihydro-quinolin-3-ylmethyl)-nicotinamide]
24	39	CS(=O)(=O)C1CCN(c2ccc(C(=O)NCc3cn(-c4ccccc4)c4cc(Cl)ccc4c3=O)cn2)CC1 [Example I-69, 4-Methanesulfonyl-3,4,5,6-tetrahydro-2H-[1,2′]bipyridinyl-5′-carboxylic acid (7-chloro-4-oxo-1-phenyl-1,4-dihydro-quinolin-3-ylmethyl)-amide]
24	33	O=C(NCc1cn(-c2ccccc2)c2cc(Cl)ccc2c1=O)c1ccc(N2CC[C@@H](O)C2)nc1 [Example I-70]
26	17	COC1CCN(c2ccc(C(=O)NCc3cn(-c4ccccc4)c4cc(Cl)ccc4c3=O)cn2)CC1 [Example I-71, 4-Methoxy-3,4,5,6-tetrahydro-2H-[1,2′]bipyridinyl-5′-carboxylic acid (7-chloro-4-oxo-1-phenyl-1,4-dihydro-quinolin-3-ylmethyl)-amide]
27	100	CNC(=O)C1CCN(c2ccc(C(=O)NCc3cn(-c4ccccc4)c4cc(Cl)ccc4c3=O)cn2)CC1 [Example I-72, 3,4,5,6-Tetrahydro-2H-[1,2′]bipyridinyl-4,5′-dicarboxylic acid 5′-[(7-chloro-4-oxo-1-phenyl-1,4-dihydro-quinolin-3-ylmethyl)-amide]-4-methylamide]
29	100	NC(=O)N1CCN(c2ccc(C(=O)NCc3cn(-c4ccccc4)c4cc(Cl)ccc4c3=O)cn2)CC1 [Example I-73, 4-{5-[(7-Chloro-4-oxo-1-phenyl-1,4-dihydro-quinolin-3-ylmethyl)-carbamoyl]-pyridin-2-yl}-piperazine-1-carboxylic acid amide]
30	27	COCCNc1ccc(C(=O)NCc2cn(-c3ccccc3)c3cc(Cl)ccc3c2=O)cn1 [Example I-74, N-(7-Chloro-4-oxo-1-phenyl-1,4-dihydro-quinolin-3-ylmethyl)-6-(2-methoxy-ethylamino)-nicotinamide]
31	14	CN(C)C1CCN(c2ccc(C(=O)NCc3cn(-c4ccccc4)c4cc(Cl)ccc4c3=O)cn2)CC1 [Example I-75, 4-Dimethylamino-3,4,5,6-tetrahydro-2H-[1,2′]bipyridinyl-5′-carboxylic acid (7-chloro-4-oxo-1-phenyl-1,4-dihydro-quinolin-3-ylmethyl)-amide]
34	48	O=C(NCc1cn(-c2ccccc2)c2cc(Cl)ccc2c1=O)c1ccc(N2CCC(O)CC2)nc1 [Example I-76, 4-Hydroxy-3,4,5,6-tetrahydro-2H-[1,2′]bipyridinyl-5′-carboxylic acid (7-chloro-4-oxo-1-phenyl-1,4-dihydro-quinolin-3-ylmethyl)-amide]
47	63	O=C(NCc1cn(-c2ccccc2)c2cc(Cl)ccc2c1=O)c1ccc(NCCO)nc1 [Example I-77, N-(7-Chloro-4-oxo-1-phenyl-1,4-dihydro-quinolin-3-ylmethyl)-6-(2-hydroxy-ethylamino)-nicotinamide]
49	22	O=C(NCc1cn(-c2ccccc2)c2cc(Cl)ccc2c1=O)c1ccc(NC2CCOCC2)nc1 [Example I-78, N-(7-Chloro-4-oxo-1-phenyl-1,4-dihydro-quinolin-3-ylmethyl)-6-(tetrahydro-pyran-4-ylamino)-nicotinamide]
55	46	CN(C)c1ccc(C(=O)NCc2cn(-c3ccccc3)c3cc(Cl)ccc3c2=O)cn1 [Example I-79, N-(7-Chloro-4-oxo-1-phenyl-1,4-dihydro-quinolin-3-ylmethyl)-6-dimethylamino-nicotinamide]
56	12	O=C(NCc1cn(-c2ccccc2)c2cc(Cl)ccc2c1=O)c1ccc(N2CCS(=O)(=O)CC2)nc1 [Example I-80, N-(7-Chloro-4-oxo-1-phenyl-1,4-dihydro-quinolin-3-ylmethyl)-6-(1,1-dioxo-thiomorpholin-4-yl)-nicotinamide]
65	100	CC(C)(C)OC(=O)NC1CCN(c2ccc(C(=O)NCc3cn(-c4ccccc4)c4cc(Cl)ccc4c3=O)cn2)CC1 [Example I-81, {5′-[(7-Chloro-4-oxo-1-phenyl-1,4-dihydro-quinolin-3-ylmethyl)-carbamoyl]-3,4,5,6-tetrahydro-2H-[1,2]bipyridinyl-4-yl}-carbamic acid tert-butyl ester]
71	19	CN1CCCN(c2ccc(C(=O)NCc3cn(-c4ccccc4)c4cc(Cl)ccc4c3=O)cn2)CC1 [Example I-82, N-(7-Chloro-4-oxo-1-phenyl-1,4-dihydro-quinolin-3-ylmethyl)-6-(4-methyl-[1,4]diazepan-1-yl)-nicotinamide]
81	12	O=C(NCc1cn(-c2ccccc2)c2cc(Cl)ccc2c1=O)c1ccc(N2CCN(CCO)CC2)nc1 [Example I-83, N-(7-Chloro-4-oxo-1-phenyl-1,4-dihydro-quinolin-3-ylmethyl)-6-[4-(2-hydroxy-ethyl)-piperazin-1-yl]-nicotinamide]
100	52	O=C(NCc1cn(-c2ccccc2)c2cc(Cl)ccc2c1=O)c1ccc(N2CCCC2)nc1 [Example I-84, N-(7-Chloro-4-oxo-1-phenyl-1,4-dihydro-quinolin-3-ylmethyl)-6-pyrrolidin-1-yl-nicotinamide]
110	72	O=C(NCc1cn(-c2ccccc2)c2cc(Cl)ccc2c1=O)c1ccc(N2CCNCC2)nc1 [Example I-85, N-(7-Chloro-4-oxo-1-phenyl-1,4-dihydro-quinolin-3-ylmethyl)-6-piperazin-1-yl-nicotinamide]
16	19	O=C(NCc1cn(-c2ccccc2)c2cc(Cl)ccc2c1=O)c1cnc(N2CCCCC2)s1 [Example I-91, 2-Piperidin-1-yl-thiazole-5-carboxylic acid (7-chloro-4-oxo-1-phenyl-1,4-dihydro-quinolin-3-ylmethyl)-amide]
21	26	CS(=O)(=O)C1CCN(c2ncc(C(=O)NCc3cn(-c4ccccc4)c4cc(Cl)ccc4c3=O)s2)CC1 [Example I-92, 2-(4-Methanesulfonyl-piperidin-1-yl)-thiazole-5-carboxylic acid (7-chloro-4-oxo-1-phenyl-1,4-dihydro-quinolin-3-ylmethyl)-amide]
33	100	O=C(NCc1cn(-c2ccccc2)c2cc(Cl)ccc2c1=O)c1cnc(N2CCC(CO)CC2)s1 [Example I-93, 2-(4-Hydroxymethyl-piperidin-1-yl)-thiazole-5-carboxylic acid (7-chloro-4-oxo-1-phenyl-1,4-dihydro-quinolin-3-ylmethyl)-amide]
36	14	O=C(NCc1cn(-c2ccccc2)c2cc(Cl)ccc2c1=O)c1cnc(N2CCC(O)CC2)s1 [Example I-94, 2-(4-Hydroxypiperidin-1-yl)-thiazole-5-carboxylic acid (7-chloro-4-oxo-1-phenyl-1,4-dihydro-quinolin-3-ylmethyl)-amide]
40	22	CN1CCN(c2ncc(C(=O)NCc3cn(-c4ccccc4)c4cc(Cl)ccc4c3=O)s2)CC1 [Example I-95, 2-(4-Methyl-piperazin-1-yl)-thiazole-5-carboxylic acid (7-chloro-4-oxo-1-phenyl-1,4-dihydro-quinolin-3-ylmethyl)-amide]
55	100	O=C(NCc1cn(-c2ccccc2)c2cc(Cl)ccc2c1=O)c1cnc(N2CCOCC2)s1 [Example I-96, 2-Morpholin-4-yl-thiazole-5-carboxylic acid (7-chloro-4-oxo-1-phenyl-1,4-dihydro-quinolin-3-ylmethyl)-amide]
69	39	O=C(NCc1cn(-c2ccccc2)c2cc(Cl)ccc2c1=O)c1cnc(N2CCS(=O)(=O)CC2)s1 [Example I-97, 2-(1,1-Dioxo-thiomorpholin-4-yl)-thiazole-5-carboxylic acid (7-chloro-4-oxo-1-phenyl-1,4-dihydro-quinolin-3-ylmethyl)-amide]
52	6.2	O=C(NCc1cn(-c2ccccc2)c2cc(Cl)ccc2c1=O)c1ccc(C(=O)NC2C3CC4CC2CC(O)(C4)C3)cc1 (stereo not shown) [Example I-99, N-(7-Chloro-4-oxo-1-phenyl-1,4-dihydro-quinolin-3-ylmethyl)-N′-(5-hydroxy-adamantan-2-yl)-terephthalamide]
90	29	O=C(NCc1cn(-c2ccccc2Cl)c2cc(Cl)ccc2c1=O)c1ccc(N2CCOCC2)nc1 [Example I-100]
120	100	Cn1cc(C(=O)NCc2cn(-c3ccccc3F)c3cc(F)ccc3c2=O)cn1 [Example I-104, 1-Methyl-1H-pyrazole-4-carboxylic acid [7-fluoro-1-(2-fluoro-phenyl)-4-oxo-1,4-dihydro-quinolin-3-ylmethyl]-amide]
